Data taken from US10683486B2, “Methods for producing hepatocytes” (BioLamina AB, priority 2015, dated 2020).

How the values were obtained:
[1] = system: MAN11 derived hepatocytes; test: Protein secretion (ELISA) and CYP p450 activity of MAN11 derived hepatocytes; format: cell-based, human; details: day 18, n=3, versus MG
Experimental: MAN11 cells, another GMP grade cell line, were plated on three different substrates. The first substrate was Matrigel® (MG), and served as a control. The second substrate was coated with 5 micrograms per square centimeter (μg/cm^2) of laminin-521 (LN-521). […] The cells were then differentiated according to the Cameron protocol.
FIG. 17 is a set of four bar graphs. […] The second row of two graphs show the metabolic function of CYP p450 activity on day 18 for CYP1A2 and CYP3A activity. No significant differences were observed across the three matrices.
Looking at both Example 4 and Example 5, the MAN11 and MAN12 cells differentiated efficiently on all three substrates, with the majority of cells (>80%) expressing albumin and CYP3A, as detected by immunostaining.

[2] = system: endoderm and hepatic cells differentiated from H9 hESCs; test: Immunostaining of endoderm and hepatoblast markers (hepatoblast specification); format: cell-based, human
Experimental: H9 human embryonic stem cells (hESCs) were cultured and maintained in a humidified 37° C., 5% CO2 incubator. Three different substrates were then prepared in 96-well plates. The first substrate was pre-coated with Matrigel® (MG), and served as a control. The second substrate was coated with 5 micrograms per square centimeter (μg/cm^2) of laminin-521 (LN-521).
Differentiation was initiated at 40% confluence, by replacing serum-free medium mTESR1 (Stem Cell Technologies) with endoderm differentiation medium—RPMI 1640 containing 1×B27 (Life Technologies), 100 ng/mL Activin A (PeproTech) and 50 ng/mL Wnt3a (R&D). The medium was changed every 24 hours, for 72 hours. On day 4, endoderm differentiation medium was replaced with hepatoblast differentiation medium, and this was renewed every second day for a further five days. The medium consisted of KO-DMEM (Life Technologies), Serum Replacement (Life Technologies), 0.5% Glutamax (Life Technologies), 1% non-essential amino acids (Life Technologies), 0.2% β-mercaptoethanol (Life Technologies) and 1% dimethyl sulofxide (Sigma) for 5 days. At Day 9, differentiating cells were cultured in hepatocyte maturation medium HepatoZYME (Life Technologies) containing 1% Glutamax (Life Technologies), supplemented with 10 ng/mL hepatocyte growth factor (Peprotech) and 20 ng/mL oncostatin m (Peprotech).
Immunocytochemistry analysis was subsequently performed on hESC-derived hepatocytes. Cell cultures were fixed in 100% ice-cold methanol at −20 degrees Celsius for 30 minutes, and adjacent cells were pre-washed twice with PBS buffer at room temperature. Cell monolayers were blocked with 0.1% PBS-Tween solution containing 10% bovine serum albumin for 1 hour. Subsequently, the monolayers were incubated with primary antibodies diluted in PBS-0.1% Tween/1% BSA at 4 degrees Celsius overnight. After 24 hours, the primary antibodies were removed and the fixed monolayers were washed three times with PBS-0.1% Tween/1% BSA. Cells were incubated with appropriate secondary antibodies diluted in PBS-0.1% Tween/1% BSA for one hour at room temperature and washed with three times with PBS. Cultures were then mounted with PermaFluor™ Aqueous Mounting Medium and counterstained with NucBlue Hoescht 33342. The cells were imaged with the Zeiss Axio Observer Z1 microscope with LD PlanNeoFluar objective lenses, and a Zeiss AxioCamMR3 camera was used for image acquisition. The images were processed through Zeiss Axiovision SE 64 Rel 4.8 and analyzed using Zeiss Axiovision version 4.9.1.0. The percentage of positive cells and standard deviation was estimated from at least five random fields of view.
Next, the efficiency of the differentiation process was measured. FIG. 4 is a set of 15 photomicrographs of endoderm and hepatic cells grown on the three different substrates, 10× or 20× magnification (indicated by scale), on day 3 of differentiation.
FOXA2 was expressed on all substrates at day 3. […] SOX17 staining was more varied across the three substrates; it was lowest on MG and highest on LN-521. As cell differentiation progressed and hepatic fate was specified, cells began expressing high levels of hepatoblast markers. AFP, HNF4a, and CK19 were expressed in the majority of cells on all three substrates. […] As shown, hepatoblast specification on all three matrices appeared equivalent and highly efficient.

## LN-521: substrate coated with 5 μg/cm^2 of laminin-521, the protein formed by joining α5, β2 and γ1 chains
[1]
  Albumin secretion: signicantly increased
  alpha fetoprotein (AFP) secretion: significant reduction
[1]; listed as LN-512
  alpha fetoprotein (AFP) secretion: significantly reduced foetal protein secretion
[2]; day 3 of differentiation
  AFP, percentage of positive cells and standard deviation: 98.3% ± 0.9
  CK19, percentage of positive cells and standard deviation: 98.5% ± 1.0
  FOXA2, percentage of positive cells and standard deviation: 80.4% ± 3.5
  HNF4A, percentage of positive cells and standard deviation: 86.4% ± 2.3
  SOX17, percentage of positive cells and standard deviation: 92.6% ± 1.8
[2]; see CK19 photomicrographs
  increase in cell size of differentiated hepatocytes: approximately 2 fold
